Test results as given in US5371102A, “Compositions and methods of inhibiting thyroid activity” (priority 1993, dated 1994).
“Also recorded” adds a separate entry of the source.

What was measured:
TPX [1] = biological target: T1, TPX (Sus scrofa, UniProt P09933); assay: TPX-catalyzed iodide oxidation (triiodide formation), spectrophotometric; type: biochemical, hog
T1 sequence (P09933 15-926): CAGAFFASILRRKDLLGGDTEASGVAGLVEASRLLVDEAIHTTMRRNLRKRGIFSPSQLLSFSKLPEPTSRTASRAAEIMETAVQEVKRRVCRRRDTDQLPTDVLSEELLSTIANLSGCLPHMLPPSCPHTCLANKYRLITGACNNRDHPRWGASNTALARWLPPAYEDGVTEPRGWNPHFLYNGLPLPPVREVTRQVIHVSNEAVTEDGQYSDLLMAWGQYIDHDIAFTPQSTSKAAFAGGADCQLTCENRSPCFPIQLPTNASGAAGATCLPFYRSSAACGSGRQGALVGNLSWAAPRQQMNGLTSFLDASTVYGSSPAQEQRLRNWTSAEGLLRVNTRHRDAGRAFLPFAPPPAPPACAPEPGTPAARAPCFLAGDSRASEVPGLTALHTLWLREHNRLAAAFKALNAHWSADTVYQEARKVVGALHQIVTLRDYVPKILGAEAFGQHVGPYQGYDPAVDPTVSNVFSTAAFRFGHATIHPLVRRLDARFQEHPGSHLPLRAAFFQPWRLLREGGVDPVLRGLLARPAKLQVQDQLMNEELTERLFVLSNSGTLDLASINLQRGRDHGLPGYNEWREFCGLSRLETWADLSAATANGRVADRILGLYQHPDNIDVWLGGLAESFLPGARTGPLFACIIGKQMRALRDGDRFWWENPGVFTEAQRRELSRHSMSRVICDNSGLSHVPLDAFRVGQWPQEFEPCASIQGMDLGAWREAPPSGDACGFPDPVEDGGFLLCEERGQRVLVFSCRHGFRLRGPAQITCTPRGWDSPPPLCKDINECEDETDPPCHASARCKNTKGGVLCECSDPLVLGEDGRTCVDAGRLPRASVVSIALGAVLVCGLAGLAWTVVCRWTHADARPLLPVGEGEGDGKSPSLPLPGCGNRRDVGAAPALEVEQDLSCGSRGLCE
Excerpt: Materials used in the examples below were obtained from the following sources. Bovine LPX, bovine liver catalase, glucose oxidase, 30% hydrogen peroxide, glucose, guaiacol, ABTS and deuterium oxide were purchased from Sigma Chemical Company. Selenium dioxide, MBI ^13 CH3 I and PBA were purchased from Aldrich Chemical Company and PBA was purified as previously described by Fieset et al., Reagents for Organic Synthesis, Vol. I, pp.135-139, John Wiley and Sons, N.Y. (1967). LPX purity was checked by PAGE, as described by Doerge, D.R., et al. in, Biochem. Pharmacol., Vol.36, pp.972-974 (1986). TPX was purified from hog thyroids obtained from a local slaughterhouse by published procedures. Doerge & Takazowa, Chemical Research in Toxicology, Vol. 3, pp. 98-101 (1990). TPX purity was determined by LC and its concentration determined spectophotometrically. Hydroperoxide concentrations were determined by iodometric titration, as described by Kolthoff, et al., in "Quantitative Chemical Analysis", Macmillan, London, pp.842-860 (1969). MMBI, and BI were synthesized by published procedures as described by Doerge, D.R., Biochem, Vol. 27, pp. 3697-3700 (1988) and were recrystallized from aqueous ethanol. MeBI was purified by distillation and DMeBI^+ was synthesized and purified by recrystallization from ethyl acetate/methanol. 1-^13 C-MMBI was synthesized from ^13 CH3 I according to the procedure disclosed by Doerge, D.R., in, J. Lab. Comp. and Radiopharm., Vol.25, pp.985-990 (1988). PPHP and PPA were prepared, purified and analyzed as previously described by Doerge, Biochem, Vol.27, p.11 (1988). The methyl ester of 1-methyl-benzimidazole-2-sulfinic acid was prepared by addition of hydrogen peroxide (5 equivalents of a 10 M solution) to MMBI (0.1 M) in methanol. The products, MeBI and the ester, were obtained following preparative TLC on silica (Uniplate, Analtech Co., Newark, DL) using 5% methanol/chloroform as eluant. […]
1,3-diacetyl MBI (AczMBI) was synthesized according to the method published by Doerge et al., Syn. […] Varying quantities of Ac2 MBI were incubated with TPX, H2 O2, and I^-. […]

LPX [2] = biological target: T2, LPX (Bos taurus, UniProt P80025); assay: LPX-catalyzed oxidation of guaiacol or ABTS; type: biochemical, bovine; details: LPX plus hydrogen peroxide
T2 construct: purchased Sigma Chemical Company
Excerpt: (§1) Materials used in the examples below were obtained from the following sources. Bovine LPX, bovine liver catalase, glucose oxidase, 30% hydrogen peroxide, glucose, guaiacol, ABTS and deuterium oxide were purchased from Sigma Chemical Company. Selenium dioxide, MBI ^13 CH3 I and PBA were purchased from Aldrich Chemical Company and PBA was purified as previously described by Fieset et al., Reagents for Organic Synthesis, Vol. I, pp.135-139, John Wiley and Sons, N.Y. (1967). LPX purity was checked by PAGE, as described by Doerge, D.R., et al. in, Biochem. Pharmacol., Vol.36, pp.972-974 (1986). TPX was purified from hog thyroids obtained from a local slaughterhouse by published procedures. Doerge & Takazowa, Chemical Research in Toxicology, Vol. 3, pp. 98-101 (1990). TPX purity was determined by LC and its concentration determined spectophotometrically. Hydroperoxide concentrations were determined by iodometric titration, as described by Kolthoff, et al., in "Quantitative Chemical Analysis", Macmillan, London, pp.842-860 (1969). […] PPHP and PPA were prepared, purified and analyzed as previously described by Doerge, Biochem, Vol.27, p.11 (1988). […]
Inhibition of LPX activity by thiones was determined from the kinetics of iodide ion, guaiacol or ABTS oxidation assays conducted at 25° C. Kinetic parameters of suicide inactivation were determined as previously described. […]

TPX [3] = biological target: T1, TPX; assay: TPX/hydrogen peroxide-catalyzed oxidation of ABTS and guaiacol; type: biochemical, hog
Excerpt: as §1, with “(1969). MMBI, and BI were synthesized by published procedures as described by Doerge, D.R., Biochem, Vol. 27, pp. 3697-3700 (1988) and were recrystallized from aqueous ethanol.” for “(1969).”

LPX [4] = biological target: T2, LPX; assay: LPX-catalyzed tyrosine iodination; type: biochemical, bovine
Excerpt: as §1
In this experiment the effect of DMMBI on tyrosine iodination catalyzed by LPX was determined. […]

[5] = reaction of DMMBI with preformed triiodide; details: triiodide formed by H2O2, LPX and iodide ion
Excerpt: When triiodide ion was formed by addition of hydrogen peroxide to LPX and iodide ion, addition of DMMBI caused rapid quenching of triiodide (ca. 1 sec) and DMeBI^+ was the sole product. Triiodide produced by addition of […] to aqueous iodide ion reacted identically with DMMBI.

- inhibition of iodide ion oxidation (TPX [1]; TPX/hydrogen peroxide): inhibits only iodide ion oxidation
- tyrosine iodination (LPX [4]): inhibits tyrosine iodination
Compound: Cn1c(=S)n(C)c2ccccc21 [DMMBI, 1,3-dimethylbenzimidazole-2-thione]
- effect on triiodide formation (TPX [1]; TPX, H2O2 and I-): causes a lag in triiodide formation, followed by an increase in the rate of triiodide formation approximating the control rate
- effect on rate of enzymatic oxidation of guaiacol or ABTS (LPX [2]): did not reduce the rate of enzymatic oxidation; also recorded: does not affect LPX or TPX/hydrogen peroxide-catalyzed oxidation of the substrates ABTS and guaiacol
- effect on oxidation of ABTS and guaiacol (TPX [3]): does not affect LPX or TPX/hydrogen peroxide-catalyzed oxidation of the substrates ABTS and guaiacol
- time of triiodide quenching [5]: ca. 1 sec
